Where two headings read alike, the source gives them in different places.

The target in the experiment is T1, human α-synuclein (Homo sapiens, UniProt P37840).
T1 construct: the full-length gene for untagged human α-synuclein was inserted; made in house; host or cells: E. coli BL21(DE3), plasmid derived from pT7 or pET11a
Description: Cell-free Thioflavin T assay of α-synuclein aggregation (αSyn ThT Assay). The following applies: αSyn 50 μM, compounds at 100 μM. The format is biochemical. The essentials:
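Inhibition is reported as 100% minus background-corrected ThT signal relative to vehicle wells, taken at 36, 47, 48 or 72 h or the last read. Reactions held 50 μM recombinant α-synuclein, 20-100 μM compound, 20-40 μM ThT and 1% DMSO. Incubation was at 37° C., shaken, with a glass bead.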

Where [1] appears, read: mean % inhibition of αSyn aggregation relative to DMSO control, read-out: αSyn ThT Assay % Inhibition.
[2] abbreviates: class symbol, read-out: αSyn ThT Assay % Inhibition (activity range).

For the compound `O=C(O)C1CSc2c(-c3cccc(C(F)(F)F)c3)c(Cc3cccc4ccccc34)cc(=O)n21` (racemic) [Compound 011, 7-(naphthalen-1-ylmethyl)-5-oxo-8-(3-(trifluoromethyl)phenyl)-2,3-dihydro-5H-thiazolo[3,2-a]pyridine-3-carboxylic acid], the inhibition at 100 µM is, setting by setting: under setting [1], 56%; under setting [2], 31 to 60%.
As to `CCCCCN1CC(C(=O)O)n2c(c(-c3cccc(C(F)(F)F)c3)c(Cc3cccc4ccccc34)cc2=O)S1(=O)=O` (racemic) [Compound 025, 8-(naphthalen-1-ylmethyl)-6-oxo-2-pentyl-9-(3-(trifluoromethyl)phenyl)-3,4-dihydro-2H,6H-pyrido[1,2-e][1,2,5]thiadiazine-4-carboxylic acid 1,1-dioxide], the inhibition at 100 µM under setting [1] amounted to 59% and the inhibition at 100 µM under setting [2] lay in the range of 31 to 60%.
As for `O=C(O)C1C[S+]([O-])c2c(-c3cccc(C(F)(F)F)c3)c(Cc3cccc4ccccc34)cc(=O)n21` (racemic) [Compound 027b, 7-(naphthalen-1-ylmethyl)-5-oxo-8-(3-(trifluoromethyl)phenyl)-2,3-dihydro-5H-thiazolo[3,2-a]pyridine-3-carboxylic acid 1-oxide], the inhibition at 100 µM is, setting by setting: under setting [1], 4%; under setting [2], -10 to 10%.
Take `O=C(O)[C@@H]1CS(=O)(=O)c2c(-c3cccc(C(F)(F)F)c3)c(Cc3cccc4ccccc34)cc(=O)n21` (single isomer, unassigned) [Compound 010a, 7-(naphthalen-1-ylmethyl)-5-oxo-8-(3-(trifluoromethyl)phenyl)-2,3-dihydro-5H-thiazolo[3,2-a]pyridine-3-carboxylic acid 1,1-dioxide]: the inhibition at 100 µM is, setting by setting: under setting [1], 41%; under setting [2], 31 to 60%.
Take `O=C(O)[C@H]1CS(=O)(=O)c2c(-c3cccc(C(F)(F)F)c3)c(Cc3cccc4ccccc34)cc(=O)n21` (single isomer, unassigned) [Compound 010b, 7-(naphthalen-1-ylmethyl)-5-oxo-8-(3-(trifluoromethyl)phenyl)-2,3-dihydro-5H-thiazolo[3,2-a]pyridine-3-carboxylic acid 1,1-dioxide]: the inhibition at 100 µM is, setting by setting: under setting [1], 35%; under setting [2], 31 to 60%.
Take `O=C(O)C1CSc2c(-c3cccc(C(F)(F)F)c3)c(Cc3cccc4ccccc34)cc(=O)n21` (single isomer, unassigned) [Compound 011a, 7-(naphthalen-1-ylmethyl)-5-oxo-8-(3-(trifluoromethyl)phenyl)-2,3-dihydro-5H-thiazolo[3,2-a]pyridine-3-carboxylic acid]: the inhibition at 100 µM reads like this: under setting [1], 13%; under setting [2], 11 to 30%.
For `CCN1CC(C(=O)O)n2c(c(-c3cccc(C(F)(F)F)c3)c(Cc3cccc4ccccc34)cc2=O)S1(=O)=O` (single isomer, unassigned) [Compound 015a, 2-ethyl-8-(naphthalen-1-ylmethyl)-6-oxo-9-(3-(trifluoromethyl)phenyl)-3,4-dihydro-2H,6H-pyrido[1,2-e][1,2,5]thiadiazine-4-carboxylic acid 1,1-dioxide], in that order: 62% and greater than 60%.
Consider `COc1ccc(CN2C[C@@H](C(=O)O)n3c(c(-c4cccc(C(F)(F)F)c4)c(Cc4cccc5ccccc45)cc3=O)S2(=O)=O)cc1` (single isomer, unassigned) [Compound 026a], for which the inhibition at 100 µM is, setting by setting: under setting [1], 51%; under setting [2], 31 to 60%.
In the same order, the values of `CN(C)CCN1CC(C(=O)O)n2c(c(-c3cccc(C(F)(F)F)c3)c(Cc3cccc4ccccc34)cc2=O)S1(=O)=O` (centres unmarked) [Compound 017, 2-(2-(dimethylamino)ethyl)-8-(naphthalen-1-ylmethyl)-6-oxo-9-(3-(trifluoromethyl)phenyl)-3,4-dihydro-2H,6H-pyrido[1,2-e][1,2,5]thiadiazine-4-carboxylic acid 1,1-dioxide] are 53% and 31 to 60%.
Turning to `O=C(O)CN1CC(C(=O)O)n2c(c(-c3cccc(C(F)(F)F)c3)c(Cc3cccc4ccccc34)cc2=O)S1(=O)=O` (centres unmarked) [Compound 018, 2-(carboxymethyl)-8-(naphthalen-1-ylmethyl)-6-oxo-9-(3-(trifluoromethyl)phenyl)-3,4-dihydro-2H,6H-pyrido[1,2-e][1,2,5]thiadiazine-4-carboxylic acid 1,1-dioxide], the inhibition at 100 µM by setting is: under setting [1], 22%; under setting [2], 11 to 30%.
For `O=C(O)C1CSc2c(-c3cccc(C(F)(F)F)c3)c(Cc3cccc4ccccc34)nc(=O)n21` (centres unmarked) [Compound 022, 7-(naphthalen-1-ylmethyl)-5-oxo-8-(3-(trifluoromethyl)phenyl)-2,3-dihydro-5H-thiazolo[3,2-c]pyrimidine-3-carboxylic acid], the inhibition at 100 µM reads like this: under setting [1], 49%; under setting [2], 31 to 60%.
Consider `Nc1c(Cc2cccc3ccccc23)c(-c2cccc(C(F)(F)F)c2)c2n(c1=O)C(C(=O)O)CS2(=O)=O` (centres unmarked) [Compound 023, 6-amino-7-(naphthalen-1-ylmethyl)-5-oxo-8-(3-(trifluoromethyl)phenyl)-2,3-dihydro-5H-thiazolo[3,2-a]pyridine-3-carboxylic acid 1,1-dioxide], for which the inhibition at 100 µM by setting is: under setting [1], 21%; under setting [2], 11 to 30%.
As to `C=CCCN1CC(C(=O)O)n2c(c(-c3cccc(C(F)(F)F)c3)c(Cc3cccc4ccccc34)cc2=O)S1(=O)=O` (centres unmarked) [Compound 024, 2-(but-3-en-1-yl)-8-(naphthalen-1-ylmethyl)-6-oxo-9-(3-(trifluoromethyl)phenyl)-3,4-dihydro-2H,6H-pyrido[1,2-e][1,2,5]thiadiazine-4-carboxylic acid 1,1-dioxide], the inhibition at 100 µM runs as follows: under setting [1], 69%; under setting [2], greater than 60%.
For the compound `NC(=O)CN1CC(C(=O)O)n2c(c(-c3cccc(C(F)(F)F)c3)c(Cc3cccc4ccccc34)cc2=O)S1(=O)=O` (centres unmarked) [Compound 028, 2-(2-amino-2-oxoethyl)-8-(naphthalen-1-ylmethyl)-6-oxo-9-(3-(trifluoromethyl)phenyl)-3,4-dihydro-2H,6H-pyrido[1,2-e][1,2,5]thiadiazine-4-carboxylic acid 1,1-dioxide], the inhibition at 100 µM by setting is: under setting [1], 33%; under setting [2], 31 to 60%.
For `CN1CC(C(N)=O)n2c(c(-c3cccc(C(F)(F)F)c3)c(Cc3cccc4ccccc34)cc2=O)S1(=O)=O` (centres unmarked) [Compound 030, 2-methyl-8-(naphthalen-1-ylmethyl)-6-oxo-9-(3-(trifluoromethyl)phenyl)-3,4-dihydro-2H,6H-pyrido[1,2-e][1,2,5]thiadiazine-4-carboxamide 1,1-dioxide], the inhibition at 100 µM was 4% under setting [1] and -10 to 10% under setting [2].
In the same order, the values of `CN1CC(C(=O)O)n2c(c(-c3cccc(C(F)(F)F)c3)c(Cc3cccc4ccccc34)c(N)c2=O)S1(=O)=O` (centres unmarked) [Compound 074, 7-amino-2-methyl-8-(naphthalen-1-ylmethyl)-6-oxo-9-(3-(trifluoromethyl)phenyl)-3,4-dihydro-2H,6H-pyrido[1,2-e][1,2,5]thiadiazine-4-carboxylic acid 1,1-dioxide] are 38% and 31 to 60%.

These data come from US20230131899A1, “INHIBITORS OF MICROBIALLY INDUCED AMYLOID” (Axial Therapeutics, Inc., priority 2020, published 2023).
